Patent publication US20250186391A1, “ORAL COMPLEMENT FACTOR D INHIBITORS” (BioCryst Pharmaceuticals, Inc., priority 2019, published 2025)

Biological target: Factor D (Homo sapiens (Human), UniProt P00746)
Test: Factor D esterolytic assay
Format: biochemical
Conditions: Z-Lys-SBzl substrate, 100 mM HEPES, 500 mM NaCl, pH 7.5, 10% DMSO; tested a minimum of three times; read-out: Measured Ki (IC50) Value for Compounds: IC50
Experimental: The IC50 value of a compound (i.e., the concentration of the compound that inhibits 50% of the enzymatic activity) was calculated according to the procedure reported in U.S. Pat. No. 6,653,340 B1, e.g., column 74 (incorporated by reference).
Specifically, the compounds were dissolved in a stock solution of DMSO at 10.0 or 100 mM. A portion of this stock solution was added to assay buffer in a final volume of 50 μL. Controls included buffer alone and enzyme solutions to which DMSO was added. Substrate was added to the reaction wells immediately or after incubation at room temperature. The reaction rates were measured spectrophotometrically by the generation of product at 405 nm for 600 sec. Background absorbance at 690 nm was measured and subtracted from the absorbance at 405 nm for each well.
The reaction rate for enzyme alone was compared to the rate of enzyme in the presence of inhibitor and the percent inhibition was calculated as shown below: […]
An established esterolytic assay for the measurement of Factor D activity and inhibition of Factor D activity was used (Kam, C. M.; McRae, B. J.; Harper, J. W.; Niemann, M. A.; Volanakis, J. E.; Powers, J. C. Human complement proteins D, C2, and B Active site mapping with peptide thioester substrates. J Biol. Chem. 1987, 262, 3444-3451). For this assay Z-Lys-SBzl, 1.29 mM (Kim, S.; Narayana, S. V. L; Volanakis, J. E. Mutational analysis of the substrate binding site of human complement Factor D. Biochemistry. 1994, 33, 14393-14399.) was used as the substrate for Factor D ([…]). Hydrolysis of this compound by Factor D liberated a free sulfhydryl group which is then reacted with 5,5′-dithiobis(2nitrobenzoic acid) producing an intense yellow color (Habeeb, A. F. S. A. Reaction of protein sulfhydryl groups with Ellman's Reagent. Methods in Enzymol. 1976, 25, 457-464.). The assays were performed in 96 well microtiter plates and rates of hydrolysis were monitored at 405 nm on a Biotek Synergy H1 plate reader. Hydrolysis rates were reported as change in mOD/min. The assay was conducted in 100 mM HEPES, 500 mM NaCl, pH 7.5 containing 10% DMSO in a final volume of 50 μL per well.
An IC50, a compound concentration which inhibits 50% of the enzymatic activity, was calculated. Compounds in the examples were tested a minimum of three times.

Chain of Factor D (P00746 26-253): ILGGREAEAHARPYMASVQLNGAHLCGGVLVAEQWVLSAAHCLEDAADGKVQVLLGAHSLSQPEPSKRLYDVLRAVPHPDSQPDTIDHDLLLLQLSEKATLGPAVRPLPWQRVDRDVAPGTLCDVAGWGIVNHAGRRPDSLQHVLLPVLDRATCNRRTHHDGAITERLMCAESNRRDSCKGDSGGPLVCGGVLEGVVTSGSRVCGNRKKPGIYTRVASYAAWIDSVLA

Row | Compound | IC50
1 | CC(C)(C)OC(=O)N(Cc1cc(-c2cccc(CN)c2)cc2c(COc3ccccc3CC(=O)O)coc12)CC(F)(F)F [Compound 177g, 2-(2-((5-(3-(aminomethyl)phenyl)-7-(((tert-butoxycarbonyl)(2,2,2-trifluoroethyl)amino)methyl)benzofuran-3-yl)methoxy)phenyl)acetic acid] | < 1000 nM
2 | NCc1cccc(-c2ccc3occ(COc4c(F)cccc4CC(=O)O)c3c2)c1 [Compound 44d, 2-(2-((5-(3-(aminomethyl)phenyl)benzofuran-3-yl)methoxy)-3-fluorophenyl)acetic acid] | < 1000 nM
3 | COc1ccc(CC(=O)O)c(OCc2coc3ccc(-c4ccnc(CN)c4)cc23)c1 [Compound 68e, 2-(2-((5-(2-(aminomethyl)pyridin-4-yl)benzofuran-3-yl)methoxy)-4-methoxyphenyl)acetic acid] | < 1000 nM
4 | COc1ccc(CC(=O)O)c(OCc2coc3c2cc(-c2cccc(CN)c2)c2occc23)c1 [Compound 231c, 2-(2-((5-(3-(aminomethyl)phenyl)benzo[1,2-b:3,4-b′]difuran-3-yl)methoxy)-4-methoxyphenyl)acetic acid] | < 1000 nM
5 | COc1ccc(CC(=O)O)c(OCc2c(C)oc3ccc(-c4cccc([C@H](N)CO)c4)cc23)c1 [Compound 241c, (S)-2-(2-((5-(3-(1-amino-2-hydroxyethyl)phenyl)-2-methylbenzofuran-3-yl)methoxy)-4-methoxyphenyl)acetic acid] | < 1000 nM
6 | NCc1cccc(-c2ccc3occ(COc4cc(C(=O)O)ccc4CC(=O)O)c3c2)c1 [Compound 158d, 3-((5-(3-(aminomethyl)phenyl)benzofuran-3-yl)methoxy)-4-(carboxymethyl)benzoic acid] | < 1000 nM
7 | Cc1ccc(S(=O)(=O)n2cc(COc3ccccc3CC(=O)O)c3cc(-c4cccc(CN)c4)ccc32)cc1 [Compound 66f, 2-(2-((5-(3-(aminomethyl)phenyl)-1-tosyl-1H-indol-3-yl)methoxy)phenyl)acetic acid] | < 1000 nM
8 | COc1ccc(CC(=O)O)c(OCc2c(F)oc3ccc(-c4cccc(CN)c4)cc23)c1 [Compound 172f, 2-(2-((5-(3-(aminomethyl)phenyl)-2-fluorobenzofuran-3-yl)methoxy)-4-methoxyphenyl)acetic acid] | < 1000 nM
9 | NCc1cccc(-c2cc(C(F)F)c3occ(COc4ccccc4CC(=O)O)c3c2)c1 [Compound 262e, 2-(2-((5-(3-(aminomethyl)phenyl)-7-(difluoromethyl)benzofuran-3-yl)methoxy)phenyl)acetic acid] | < 1000 nM
10 | COC[C@H]1CCCN1Cc1cc(-c2cccc(CN)c2)cc2c(COc3ccccc3CC(=O)O)coc12 [Compound 205d, (R)-2-(2-((5-(3-(aminomethyl)phenyl)-7-((2-(methoxymethyl)pyrrolidin-1-yl)methyl)benzofuran-3-yl)methoxy)phenyl)acetic acid] | < 1000 nM
11 | NCc1cccc(-c2ccc3c(c2)c(COc2ccccc2CC(=O)O)nn3CC2CC2)c1 [Compound 258f, 2-(2-((5-(3-(aminomethyl)phenyl)-1-(cyclopropylmethyl)-1H-indazol-3-yl)methoxy)phenyl)acetic acid] | < 1000 nM
12 | COc1ccc(CC(=O)O)c(OCc2c(C(=O)O)oc3ccc(-c4cccc(CN)c4)cc23)c1 [Compound 61d, 5-(3-(aminomethyl)phenyl)-3-((2-(carboxymethyl)-5-methoxyphenoxy)methyl)benzofuran-2-carboxylic acid] | < 1000 nM
13 | CC(C)n1nc(COc2ccccc2CC(=O)O)c2cc(-c3ccnc(CN)c3)ccc21 [Compound 266b, 2-(2-((5-(2-(aminomethyl)pyridin-4-yl)-1-isopropyl-1H-indazol-3-yl)methoxy)phenyl)acetic acid] | < 1000 nM
14 | CCCCC(C(=O)O)c1ccccc1OCc1nn(C(C)C)c2ccc(-c3cccc(CN)c3)cc12 (stereo not drawn) [Compound 312f, 2-(2-((5-(3-(aminomethyl)phenyl)-1-isopropyl-1H-indazol-3-yl)methoxy)phenyl)hexanoic acid] | 1000 to 10000 nM
15 | CCc1ccc(CC(=O)O)c(OCc2coc3ccc(-c4cccc(CN)c4F)cc23)c1 [Compound 12g, 2-(2-((5-(3-(aminomethyl)-2-fluorophenyl)benzofuran-3-yl)methoxy)-4-ethylphenyl)acetic acid] | < 1000 nM
16 | CC(C)n1nc(COc2ccccc2CC(=O)O)c2cc(-c3cccc(CN)c3N)ccc21 [Compound 307c, 2-(2-((5-(2-amino-3-(aminomethyl)phenyl)-1-isopropyl-1H-indazol-3-yl)methoxy)phenyl)acetic acid] | < 1000 nM
17 | NCc1cccc(-c2cc(COc3cccc(CC(=O)O)c3)cc3cc(COc4ccccc4CC(=O)O)oc23)c1 [Compound 16e, 2-(3-((7-(3-(aminomethyl)phenyl)-2-((2-(carboxymethyl)phenoxy)methyl)benzofuran-5-yl)methoxy)phenyl)acetic acid] | < 1000 nM
18 | Cc1cccc(CC(=O)O)c1OCc1coc2ccc(-c3cccc(CN)c3)cc12 [Compound 107d, 2-(2-((5-(3-(aminomethyl)phenyl)benzofuran-3-yl)methoxy)-3-methylphenyl)acetic acid] | < 1000 nM
19 | NCc1cccc(-c2cc(COc3ccccc3)c3occ(COc4ccccc4CC(=O)O)c3c2)c1 [Compound 92e, 2-(2-((5-(3-(aminomethyl)phenyl)-7-(phenoxymethyl)benzofuran-3-yl)methoxy)phenyl)acetic acid] | < 1000 nM

Next, values leading:

Row | IC50 | Compound
20 | < 1000 nM | COc1cc(-c2cccc(CN)c2)cc2c(COc3ccccc3CC(=O)O)coc12 [Compound 18e, 2-(2-((5-(3-(aminomethyl)phenyl)-7-methoxybenzofuran-3-yl)methoxy)phenyl)acetic acid]
21 | < 1000 nM | CCCc1oc2ccc(-c3cccc(CN)c3)cc2c1COc1ccccc1CC(=O)O [Compound 286c, 2-(2-((5-(3-(aminomethyl)phenyl)-2-propylbenzofuran-3-yl)methoxy)phenyl)acetic acid]
22 | < 1000 nM | CC(Oc1ccccc1CC(=O)O)c1coc2ccc(-c3cccc(CN)c3)cc12 (stereo not drawn) [Compound 119d, 2-(2-(1-(5-(3-(aminomethyl)phenyl)benzofuran-3-yl)ethoxy)phenyl)acetic acid]
23 | < 1000 nM | NCc1cccc(-c2cc(F)cc3cc(COc4ccccc4CC(=O)O)oc23)c1 [Compound 31f, 2-(2-((7-(3-(aminomethyl)phenyl)-5-fluorobenzofuran-2-yl)methoxy)phenyl)acetic acid]
24 | < 1000 nM | NCc1cccc(-c2ccc3oc(C(=O)O)c(COc4ccccc4CC(=O)O)c3c2)c1 [Compound 55d, 5-(3-(aminomethyl)phenyl)-3-((2-(carboxymethyl)phenoxy)methyl)benzofuran-2-carboxylic acid]
25 | 1000 to 10000 nM | Cc1cc2occ(COc3ccccc3CC(=O)O)c2cc1-c1cccc(CN)c1 [Compound 70f, 2-(2-((5-(3-(aminomethyl)phenyl)-6-methylbenzofuran-3-yl)methoxy)phenyl)acetic acid]
26 | < 1000 nM | NCc1cccc(-c2cccc3oc(COc4ccccc4CC(=O)O)cc23)c1 [Compound 26a, 2-(2-((4-(3-(aminomethyl)phenyl)benzofuran-2-yl)methoxy)phenyl)acetic acid]
27 | < 1000 nM | Cc1oc2ccc(-c3cccc(CN)c3)cc2c1COc1ccccc1CC(=O)O [Compound 124f, 2-(2-((5-(3-(aminomethyl)phenyl)-2-methylbenzofuran-3-yl)methoxy)phenyl)acetic acid]
